In US20040058909A1, “Method of treatment” (priority 2003, published 2004):

Legend:
[1] = test system: cynomolgus monkeys exposed to 1-methyl-4-phenyl-1,2,3,6-tetrahydropyridine (MPTP)
Procedure: Quetiapine may be administered to cynomolgus monkeys exposed to 1-methyl-4-phenyl-1,2,3,6-tetrahydropyridine (MPTP) and which therefore have MPTP-induced Parkinson's Disease. Such monkeys are described by Blanchet et al., Experimental Neurology, 153, 214-222 (1998).
The monkeys are assessed according to the Laval University Disability Scale for MPTP monkeys with the following motor and behavioural parameters scored: posture (normal, flexed, crouched); mobility (normal, passive); climbing (present, absent); gait (normal, abnormal); tremor (present, absent); holding food (present, absent); vocalising (present, absent); grooming (present, absent); and social interaction (present, absent).
Quetiapine may be administered at various dosage values, either alone or with varying dosages of levodopa, and scoring is carried out at regular intervals.
Quetiapine was administered subcutaneously to 8 cynomolgus monkeys at doses of 2 mg/Kg and 4 mg/Kg.

[2] = test system: patients suffering from Parkinson's Disease; details: patients with Parkinson's Disease treated for psychoses; cited from earlier work

OCCOCCN1CCN(C2=Nc3ccccc3Sc3ccccc32)CC1 [Quetiapine, 11-(4-[2-(2-hydroxyethoxy)ethyl]-l-piperazinyl)dibenzo[b,f] [1.4]-thiazepine]
levodopa effect on Parkinson's Disease symptoms ([1]; quetiapine 2 mg/Kg and 4 mg/Kg subcutaneously with levodopa): unchanged
reduction of levodopa-induced dyskinesias, compared with the 4 mg/Kg dose ([1]; quetiapine 2 mg/Kg subcutaneously, 8 cynomolgus monkeys): less effective
reduction of maximum levodopa-induced dyskinesias ([1]; quetiapine 4 mg/Kg subcutaneously, levodopa dose sufficient to produce maximum dyskinesias, 8 cynomolgus monkeys): 41%
reduction of moderate levodopa-induced dyskinesias ([1]; quetiapine 4 mg/Kg subcutaneously, levodopa dose sufficient to produce moderate dyskinesias, 8 cynomolgus monkeys): 57%
exacerbation of extra-pyramidal symptoms [2]: no exacerbation of extra-pyramidal symptoms
